In brackets after ≈: the same amount, converted by molar mass. Several values for one entry are separate records, joined by “and”; a condition that tells them apart may be missing. Equal entries are not always repeated. Entries after “also recorded” stand apart in the source; their conditions may differ. Where two headings read alike, the source gives them in different places.
What was measured:
A. fischeri = assay: Bioluminescence (light) inhibition test, ISO 11348-3; settings: for EC50 / inhibition at 3.125 µg/mL: Aliivibrio fischeri, 0.5 h; for EC50: read-out: EC50 (light inhibition), 30 min exposure; for inhibition at 3.125 µg/mL: read-out: light inhibition
Protocol: The bioluminescence inhibition test (30 min) was detected with the A. fischeri (NRRLB-11177) supplied by MicroBioTest, Gent, Belgium, and according to ISO 11348-3 [59]. The bioluminescence was determined by the luminometer Microtox (Model 500 analyzer, New Castle, DE, USA) at 490 nm. To provide the required osmotic pressure for the bacterium, the stock solution was diluted to perform the test in saline water solution (2% sodium chloride, NaCl). The concentrations tested correspond to 0.19, 0.39, 0.78, 1.56, and 3.12 mg L^−^1 and a negative control of 0 mg L^−^1. Toxicity tests were performed in triplicate with a control, and the percentage luminescence inhibition was expressed as the ratio of the decrease in bacterial light production to the remaining light.
(§1) Data analysis was conducted using RStudio for Windows (Version 2024.09.1). Dose–response models were applied to estimate the effective concentrations (EC10 and EC50) for the tested endpoints using the “drc” package. For D. magna, the data were modeled with a binomial log-logistic approach, whereas data for R. subcapitata, A. fischeri and L. sativum were fitted to log-logistic models with the upper limit constrained to 100. Furthermore, to ensure assay sensitivity and validity, a positive control exposed to potassium dichromate for the aquatic species and copper chloride for C. elegans was tested under the same experimental conditions.

L. sativum = assay: Plant germination and growth phytotoxicity test; type: in vivo, Lepidum sativum; settings: 72 h exposure; for germination: tested concentrations up to 94 mg L^−1; for EC50: Lepidium sativum, read-out: EC50 (shoot length)
Protocol: Lepidum sativum seeds were purchased from Microbiotests (Gent, Belgium) and were used for the phytotoxicity test. Tests were conducted following the standard method. Seeds (n = 10) were placed in 10 g of soil medium and exposure was carried out in triplicates. […] Germination (%) and root elongation inhibition were combined to calculate the germination index (GI, %).

[1] = Stability (photodegradation) in ISO 8692:2012 medium, quantified by HPLC; type: physicochemical; settings: 20 °C, 254 nm light
Protocol: For the photodegradation assays, 3 mg of MAT and 3 mg of LAC were separately dissolved in 150 µL of DMSO and added to 3 mL of International Organization for Standardization (ISO) 8692:2012 medium. The solutions were exposed to 254 nm of light for up to 16 days. At specific time intervals (1, 2, 3, 6, and 16 days), 400 µL of the solutions were collected and analyzed by TLC using n-hexane/EtOAc (75:25, v/v) as the eluent, with MAT and LAC standard samples serving as references.
HPLC analysis was performed in isocratic mode and with the same ISO medium solutions, using MeCN–H2O (0.1% v/v formic acid) at a 60:40 (v/v) ratio as the mobile phase, with a flow rate of 0.5 mL/min. Detection was carried out at 220 nm with a 20 μL injection loop, monitoring the chromatogram for over 50 min to identify potential degradation products. Each sample was analyzed in triplicate. Control solutions containing only the culture medium and DMSO (without MAT or LAC) were also analyzed under identical conditions to ensure specificity.
Calibration curves for MAT and LAC were prepared by injecting standard samples at concentrations ranging from 0.022 to 2.2 mg for MAT and 0.004 to 2.2 mg for LAC. These standards were used to optimize the method and quantify the degradation products.

D. magna = assay: Crustacean immobility acute test, ISO 6341; type: in vivo, Daphnia magna; settings: for immobilization: 6.91 mg L^−1, 24 h exposure; for EC50: Daphnia magna, read-out: EC50 (immobilization); for Hazard Ranking: GHS ranking of 48 h EC50, this study
Protocol: The immobility acute test (48 h) with D. magna was conducted according to ISO 6341 [60]. D. magna was selected from laboratory stock cultures at the Hygiene Laboratory of the Department of Biology of the University of Naples Federico II, placed in ISO medium, and fed daily with the microalgae R. subcapitata. For the test, five neonates (third brood, <24 h old) were exposed in 10 mL of ISO medium to the following corresponding concentrations: 0.22, 0.43, 0.86, 1.73, 3.46, 6.91, 13.83, 27.65, and 55.30 mg L^−^1 and a negative control of 0 mg L^−^1. Each concentration had 4 replicates, and immobility was assessed after 24 and 48 h of exposure.
as §1

[2] = Hazard classification and weight score over the test battery; settings: for hazard classification: classes I (no acute hazard) to V (very high acute hazard); for Weight Score [%]: overall, all tests performed
Protocol: When possible, the EC50 values derived from the tests were used for toxicity classification following the methodology in [65]. Compounds were categorized into five hazard classes, ranging from Class I (no acute hazard) to Class V (very high acute hazard). Additionally, weight scores for each test were calculated to quantify the relative level of toxicity, with scores assigned as follows: 0 (no significant toxic effect), 1 (significant toxic effect), 2 (toxic effect), and 3 (100% toxic effect). The weight score for each compound, based on the tests performed, was expressed as a percentage.

R. subcapitata = assay: Algal growth inhibition test, ISO 8692; settings: for Test Score / EC10 (growth inhibition): 72 h exposure; for EC50 / inhibition at 3.125 µg/mL: Raphidocelis subcapitata; for EC50: read-out: EC50 (growth inhibition); for inhibition at 3.125 µg/mL: read-out: growth inhibition
Protocol: The algal growth inhibition test (72 h) with R. subcapitata was carried out according to ISO 8692 [58]. The algal density was determined by spectrophotometric analysis (DR5000, Hach Lange GbH, Weinheim, Germany) at 670 nm. The concentrations tested correspond to 0.19, 0.39, 0.78, 1.56, and 3.12 mg L^−^1 and a negative control of 0 mg L^−^1. The growth inhibition was calculated as the difference in growth at the end of the test of the sample and the control group. Toxicity tests were carried out in triplicate.
as §1

C. elegans = assay: Nematode survival bioassay in soil, ASTM E2172-01; type: in vivo; settings: for mortality: 24 h exposure, across tested concentrations (1.73 to 94 mg L^−1); for Test Score: N2, Bristol variant (wild type), Caenorhabditis elegans, in vivo, 24 h
Protocol: The nematode bioassay was carried out using the Caenorhabditis elegans wild-type strain N2, Bristol variant, according to the ASTM E2172—01 Standard Method (2014). Culture was maintained on NGM (nematode growth media) plates seeded with Escherichia coli (uracil-deficient OP50 strain) and stored at 20 °C. The tests were conducted using age-synchronized adult nematodes, obtained by lysing gravid nematodes with a bleaching solution (10 g/L NaOH, 10.5 g/L NaOCl), followed by centrifugation and washing with an M9 mineral medium (2.2 mM KH2PO4, 4.2 mM Na2HPO4, 85.6 mM NaCl, and 1 mM MgSO4). The synchronized nematodes were then transferred to NGM agar plates and left to recover overnight.
Soil samples (2.33 g) were hydrated to 35–45% of their dry weight using K-medium in centrifuge tubes. Ten worms were transferred to each tube and exposed to the soil samples for 24 h at 20 °C. […] Treatments were performed in triplicate, with worms kept unfed during the exposure period. Nematodes were extracted by centrifugation (2000 rpm, 2 min) using silica gel (Ludox TM 50, Sigma-Aldrich, St. Louis, MO, USA) with a specific density of 1.13 g/mL. The supernatant was then transferred to 100 mm glass Petri dishes and washed with Keller (K) medium. Extracted individuals were counted under a microscope (40× magnification), with mortality as the measured endpoint. Test validity required a minimum of 80% nematode recovery and 90% survival in the control group.

[3] = 30 min exposure, standard error in brackets, n = 3
[4] = estimated from the model, outside of the tested concentrations
[5] = standard error in brackets, n = 3

SMILES | Test Score (A. fischeri; 30 min exposure) | EC10 (light inhibition) (A. fischeri; [3]) | inhibition at 3.125 µg/mL (A. fischeri) | EC10 (shoot length) (L. sativum) | Test Score (L. sativum) | germination (L. sativum) | EC50 (L. sativum) | Degraded Compound (%) ([1]; exposition time 1 day) | Degraded Compound (%) ([1]; exposition time 2 days) | Degraded Compound (%) ([1]; exposition time 3 days) | Degraded Compound (%) ([1]; exposition time 6 days) | immobilization (D. magna) | EC10 (immobilization) (D. magna; 24 h exposure) | EC10 (immobilization) (D. magna; 48 h exposure) | EC50 (immobilization) (D. magna; 48 h exposure) | Test Score (D. magna; 48 h exposure) | EC50 (D. magna; 24 h, 24 h exposure) | EC50 (D. magna; 48 h, 48 h exposure) | Hazard Ranking (D. magna) | hazard classification [2] | also measured
CCCC#C/C=C1/C=CC(=O)O1 [LAC, (4Z)-lachnophyllum lactone] | 1 | 0.524 mg L^−1 and 0.524 (0.212) mg L^−1 | < 40% | 70.87 mg L^−1 and 70.87 (195.32) mg L^−1 | 3 | no effects; also recorded: unaffected | 85.9 µg/mL (≈ 530 µM) | 8.5% | 19.23% | 26.58% | 28.24% | 100% | 1.67 (0.313) mg L^−1 | 1.499 mg L^−1 and 1.49 (1.063) mg L^−1 | 1.728 µg/mL (≈ 10.7 µM) | 3 | 2.44 µg/mL (≈ 15 µM) | 1.72 µg/mL (≈ 10.6 µM) | *** (toxic (<1 mg L^−1 ≤ 10 mg L^−1)) | Class II | EC50 (light inhibition) (A. fischeri; 30 min exposure, estimated from the model, outside of the tested concentrations): 8.078 µg/mL (≈ 49.8 µM); EC50 (A. fischeri; [4]): 8.07 µg/mL (≈ 49.8 µM); Weight Score [%] [2]: 53.33%; Test Score (R. subcapitata): 1; EC10 (growth inhibition) (R. subcapitata; [5]): 0.304 mg L^−1 and 0.304 (0.125) mg L^−1; EC50 (R. subcapitata; 72 h): 9.88 µg/mL (≈ 60.9 µM); inhibition at 3.125 µg/mL (R. subcapitata; 72 h): 36%; mortality (C. elegans): no mortality; Test Score (C. elegans): 0
C/C=C\C#C/C=C1/C=CC(=O)O1 [MAT, (4Z,8Z)-matricaria lactone] | 2 | 0.063 mg L^−1 and 0.063 (0.013) mg L^−1 | ~80% | 38.48 mg L^−1 and 38.48 (23.979) mg L^−1 | 2 | no effects; also recorded: unaffected | 82.3 µg/mL (≈ 514 µM) | 90% and 89.74% | 90.06% | 90.38% | 94.55% | 100% | 3.11 (1.894) mg L^−1 | 1.215 mg L^−1 and 1.21 (0.294) mg L^−1 | 2.239 µg/mL (≈ 14 µM) | 3 | 3.56 µg/mL (≈ 22.2 µM) | 2.23 µg/mL (≈ 13.9 µM) | *** (toxic (<1 mg L^−1 ≤ 10 mg L^−1)) | Class II | EC50 (A. fischeri; [5]): 0.642 µg/mL (≈ 4.01 µM); Weight Score [%] [2]: 46.66%; growth inhibition (average) (R. subcapitata; 72 h, concentrations 0.19 to 1.56 mg L^−1, negative = stimulation): approximately −10%; Test Score (R. subcapitata): 0; EC10 (growth inhibition) (R. subcapitata; [4]): 3.417 mg L^−1 and 3.417 (0.620) * mg L^−1; EC50 (R. subcapitata; 72 h): 4.52 µg/mL (≈ 28.2 µM); inhibition at 3.125 µg/mL (R. subcapitata; 72 h): -2.4%; mortality (C. elegans): no mortality; Test Score (C. elegans): 0
